How the values were obtained:
Assay type in all cases: binding
CCR2 = target: T1, CCR2 (Homo sapiens, UniProt P41597); assay: NanoBRET screen HiBiT-CCR2 in HEK293
T1 construct: purchased Promega (in-house HiBiT-GPCR construct library, NanoBRET)
Method: (§1) Each tracer candidate was screened across the entire library of HiBiT-GPCR constructs using NanoBRET as the detection modality. As depicted in Figure 4A, the specificity of interactions was evaluated through decrease in BRET due to competitive displacement of a bound tracer by excess parental compound. Each tracer was analyzed for binding to each HiBiT-GPCR fusion in the absence and in the presence of competing parental compound. Briefly, HEK293 cells were transfected with HiBiT-GPCR constructs diluted into promoterless DNA to reduce expression and maximize translocation to the cell surface. Each tracer candidate was then screened at concentrations of 1 μM and 0.1 μM across cells expressing these fusions. Cells were treated for 1.5 h with tracer either alone or in the presence of 20 μM competing parental compound (i.e., control). BRET was measured upon addition of purified LgBiT and subsequent complementation with HiBiT genetically fused to a GPCR. The specificity of interactions was assessed through a decrease in BRET signal due to competitive displacement of the bound tracer. To further gauge the robustness of these interactions, the fold response over the control (i.e., BRETtracer/BRETcontrol) was calculated. We chose a 1.5-fold response, which translates to ≥7-fold signal over noise as the minimal threshold required to score an interaction as positive. […]. Below we highlight the screening results obtained for our exemplary fluorescent tracers based on Clozapine, Amitriptyline and AZD1283.
(§2) HiBiT-GPCR DNA constructs were diluted in 10 mM Tris pH 8 to a final concentration of 0.01 μg/μL, arrayed in 96-well plates and stored at −20 °C. For transfection, HEK293 cells were suspended in Opti-MEM (without phenol red) supplemented with 2% fetal bovine serum (Seradigm) and 100 units/mL penicillin–streptomycin (Gibco) at a final concentration of 220,000 cells/mL and dispensed into white 96-well plates at 90 μL/well. Subsequent transfections and screens were carried using an Agilent Bravo Automated Liquid Handling Platform. First, the 96-well HiBiT DNA arrays were diluted 25-fold in Opti-MEM (without serum or phenol red) to a final concentration of 0.0004 μg/μL and 20 μL of the diluted DNAs were transferred into new 96-well plates. Next, promoterless carrier DNA (1 μg/μL) was diluted 25-fold (0.04 μg/μL) and then dispensed into the diluted arrays at 20 μL/well. Following brief mixing, Viafect transfection reagent (Promega) diluted 16-fold into Opti-MEM was dispensed into the plates at 40 μL/well. After mixing by pipetting, plates were incubated for 10 min on the pipetting station deck. The DNA-transfection reagent complexes were then added to plates containing cells. To facilitate the screen, 10 μL of DNA-transfection reagent complexes were added in duplicates to the top 4 and bottom 4 rows, resulting in two identical 48-well arrays per plate. Plates with transfected cells were incubated for 18–20 h at 37 °C/5% CO2. A screen of each tracer across the entire library using two different concentrations requires duplicate plates of transfected cells. Depending on the number of tracers being screened, transfections can be scaled up using the same ratios. The next day, for each tracer, four 20× screening solutions in tracer dilution buffer (Promega) were prepared: two duplicates at final concentration of 20 μM and two duplicates at a final concentration of 2 μM. A competing unmodified compound was added to one of each duplicate at a final concentration of 400 μM. The four resulting solutions were diluted 4-fold in Opti-MEM without serum or phenol red to generate 5× solutions (5 µM and 0.5 µM tracer +/− 100 μM competing compound). To screen the library, a BioTek MultiFlo FX liquid dispenser was used to dispense 22.5 µL of tracer solution to the top 4 rows and 22.5 µL tracer + competing compound solution to the 4 bottom rows. Plates were briefly mixed on an orbital shaker and incubated for 1.5 h at room temperature. […]

SMO = target: T2, SMO (Homo sapiens, UniProt Q99835); assay: NanoBRET screen HiBiT-SMO in HEK293
T2 construct: purchased Promega (in-house HiBiT-GPCR construct library, NanoBRET)
T2 sequence (Q99835 28-787): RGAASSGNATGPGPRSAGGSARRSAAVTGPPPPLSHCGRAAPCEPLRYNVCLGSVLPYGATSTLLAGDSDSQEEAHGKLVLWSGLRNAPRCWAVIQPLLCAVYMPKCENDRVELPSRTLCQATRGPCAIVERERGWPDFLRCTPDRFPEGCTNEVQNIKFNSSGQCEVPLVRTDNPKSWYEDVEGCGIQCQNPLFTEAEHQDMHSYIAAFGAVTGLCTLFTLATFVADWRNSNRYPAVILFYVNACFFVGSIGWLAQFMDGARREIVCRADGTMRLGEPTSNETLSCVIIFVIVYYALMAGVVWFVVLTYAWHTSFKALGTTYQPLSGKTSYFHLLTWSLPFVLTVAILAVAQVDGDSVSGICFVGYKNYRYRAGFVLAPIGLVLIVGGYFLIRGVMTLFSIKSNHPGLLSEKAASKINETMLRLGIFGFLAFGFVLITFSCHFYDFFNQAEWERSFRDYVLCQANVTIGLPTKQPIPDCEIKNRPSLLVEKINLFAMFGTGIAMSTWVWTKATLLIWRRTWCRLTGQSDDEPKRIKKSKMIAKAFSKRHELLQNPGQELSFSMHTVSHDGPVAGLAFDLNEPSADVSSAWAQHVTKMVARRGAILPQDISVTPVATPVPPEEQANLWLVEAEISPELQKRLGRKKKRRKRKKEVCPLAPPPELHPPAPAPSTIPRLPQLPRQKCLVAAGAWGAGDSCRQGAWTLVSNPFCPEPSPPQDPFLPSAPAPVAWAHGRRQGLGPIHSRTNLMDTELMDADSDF
Method: as §1, §2

SSTR1 = target: T3, SSTR1 (Homo sapiens, UniProt P30872); assay: NanoBRET screen HiBiT-SSTR1 in HEK293
T3 construct: purchased Promega (in-house HiBiT-GPCR construct library, NanoBRET)
T3 sequence (P30872 whole entry): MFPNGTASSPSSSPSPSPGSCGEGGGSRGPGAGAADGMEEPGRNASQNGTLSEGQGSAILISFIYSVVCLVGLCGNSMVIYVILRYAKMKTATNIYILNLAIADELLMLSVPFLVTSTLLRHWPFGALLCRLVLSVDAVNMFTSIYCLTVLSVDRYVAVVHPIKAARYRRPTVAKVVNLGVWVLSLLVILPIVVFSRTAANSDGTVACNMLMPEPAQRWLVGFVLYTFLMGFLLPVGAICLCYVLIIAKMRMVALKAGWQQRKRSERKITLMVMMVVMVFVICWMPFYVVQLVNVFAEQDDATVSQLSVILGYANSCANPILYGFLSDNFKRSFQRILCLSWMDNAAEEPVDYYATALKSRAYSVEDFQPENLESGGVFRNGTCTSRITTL
Method: as §1, §2

DRD5 = target: T4, DRD5 (Homo sapiens, UniProt P21918); assay: NanoBRET screen HiBiT-DRD5 in HEK293
T4 construct: purchased Promega (in-house HiBiT-GPCR construct library, NanoBRET)
T4 sequence (P21918 whole entry): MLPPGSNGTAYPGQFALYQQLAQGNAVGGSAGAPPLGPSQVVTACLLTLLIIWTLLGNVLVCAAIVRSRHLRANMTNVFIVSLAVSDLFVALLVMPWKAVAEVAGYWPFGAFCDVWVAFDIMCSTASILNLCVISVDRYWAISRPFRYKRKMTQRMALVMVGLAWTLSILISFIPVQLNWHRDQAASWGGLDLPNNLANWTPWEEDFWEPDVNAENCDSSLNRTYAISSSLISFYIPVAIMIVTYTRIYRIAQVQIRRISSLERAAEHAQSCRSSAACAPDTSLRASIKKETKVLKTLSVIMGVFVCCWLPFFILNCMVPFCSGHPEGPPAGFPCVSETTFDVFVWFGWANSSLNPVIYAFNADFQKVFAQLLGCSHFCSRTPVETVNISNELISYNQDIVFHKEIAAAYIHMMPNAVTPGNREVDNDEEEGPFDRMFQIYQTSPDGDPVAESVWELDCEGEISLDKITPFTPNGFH
Method: as §1, §2

PTAFR = target: T5, PTAFR (Homo sapiens, UniProt P25105); assay: NanoBRET screen HiBiT-PTAFR in HEK293
T5 construct: purchased Promega (in-house HiBiT-GPCR construct library, NanoBRET)
T5 sequence (P25105 whole entry): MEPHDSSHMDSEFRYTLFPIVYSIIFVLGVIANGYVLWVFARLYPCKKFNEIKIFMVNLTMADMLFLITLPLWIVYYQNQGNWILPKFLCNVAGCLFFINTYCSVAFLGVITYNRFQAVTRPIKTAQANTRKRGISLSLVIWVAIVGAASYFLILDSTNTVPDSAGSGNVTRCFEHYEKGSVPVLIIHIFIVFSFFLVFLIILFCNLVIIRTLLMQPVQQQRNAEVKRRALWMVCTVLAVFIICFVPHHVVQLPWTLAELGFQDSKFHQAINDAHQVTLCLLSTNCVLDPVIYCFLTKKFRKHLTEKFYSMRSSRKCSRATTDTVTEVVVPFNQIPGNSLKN
Method: as §1, §2

CNR1 = target: T6, CNR1 (Homo sapiens, UniProt P21554); assay: NanoBRET screen HiBiT-CNR1 in HEK293; settings: CNR1
T6 construct: purchased Promega (in-house HiBiT-GPCR construct library, NanoBRET)
T6 sequence (P21554 whole entry): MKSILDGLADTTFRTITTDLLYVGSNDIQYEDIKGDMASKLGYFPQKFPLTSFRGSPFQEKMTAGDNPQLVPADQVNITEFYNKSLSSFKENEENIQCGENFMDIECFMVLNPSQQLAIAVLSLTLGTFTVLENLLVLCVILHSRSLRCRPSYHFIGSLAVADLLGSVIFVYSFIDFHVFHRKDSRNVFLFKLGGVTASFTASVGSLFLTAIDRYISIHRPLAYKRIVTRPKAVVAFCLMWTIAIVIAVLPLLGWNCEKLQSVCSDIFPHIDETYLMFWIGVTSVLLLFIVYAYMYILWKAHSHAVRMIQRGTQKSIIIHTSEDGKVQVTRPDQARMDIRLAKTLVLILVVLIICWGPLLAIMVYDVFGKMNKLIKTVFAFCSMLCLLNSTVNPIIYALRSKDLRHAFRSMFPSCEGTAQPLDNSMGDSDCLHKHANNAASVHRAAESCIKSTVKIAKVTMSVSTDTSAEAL
Method: as §1, §2

RXFP3 = target: T7, RXFP3 (Homo sapiens, UniProt Q9NSD7); assay: NanoBRET screen HiBiT-RXFP3 in HEK293
T7 construct: purchased Promega (in-house HiBiT-GPCR construct library, NanoBRET)
T7 sequence (Q9NSD7 1-469): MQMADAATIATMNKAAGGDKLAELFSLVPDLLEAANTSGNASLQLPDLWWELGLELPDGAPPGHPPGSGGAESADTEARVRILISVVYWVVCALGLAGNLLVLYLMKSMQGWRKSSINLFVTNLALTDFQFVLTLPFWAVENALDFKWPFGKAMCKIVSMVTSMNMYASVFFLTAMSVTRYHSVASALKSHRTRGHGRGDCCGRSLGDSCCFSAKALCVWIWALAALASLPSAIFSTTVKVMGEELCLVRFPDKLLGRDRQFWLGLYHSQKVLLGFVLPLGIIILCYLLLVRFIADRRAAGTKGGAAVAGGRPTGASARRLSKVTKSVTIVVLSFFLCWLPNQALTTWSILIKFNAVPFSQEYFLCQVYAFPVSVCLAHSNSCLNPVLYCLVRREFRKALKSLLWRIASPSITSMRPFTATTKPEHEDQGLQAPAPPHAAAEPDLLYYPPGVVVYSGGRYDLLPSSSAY
Method: as §1, §2

PTGDR2 = target: T8, PTGDR2 (Homo sapiens, UniProt Q9Y5Y4); assay: NanoBRET screen HiBiT-PTGDR2 in HEK293
T8 construct: purchased Promega (in-house HiBiT-GPCR construct library, NanoBRET)
T8 sequence (Q9Y5Y4 1-395): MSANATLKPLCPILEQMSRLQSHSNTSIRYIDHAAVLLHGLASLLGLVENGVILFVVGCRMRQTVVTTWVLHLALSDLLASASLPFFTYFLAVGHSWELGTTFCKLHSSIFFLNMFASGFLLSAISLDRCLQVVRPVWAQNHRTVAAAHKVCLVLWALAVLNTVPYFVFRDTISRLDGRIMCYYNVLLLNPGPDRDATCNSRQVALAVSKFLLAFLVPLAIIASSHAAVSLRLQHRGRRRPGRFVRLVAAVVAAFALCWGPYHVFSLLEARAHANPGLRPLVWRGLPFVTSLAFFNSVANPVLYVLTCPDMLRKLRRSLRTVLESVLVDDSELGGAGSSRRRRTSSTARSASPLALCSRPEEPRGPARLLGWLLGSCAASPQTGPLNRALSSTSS
Method: as §1, §2

HTR1D = target: T9, HTR1D (Homo sapiens, UniProt P28221); assay: NanoBRET screen HiBiT-HTR1D in HEK293
T9 construct: purchased Promega (in-house HiBiT-GPCR construct library, NanoBRET)
T9 sequence (P28221 whole entry): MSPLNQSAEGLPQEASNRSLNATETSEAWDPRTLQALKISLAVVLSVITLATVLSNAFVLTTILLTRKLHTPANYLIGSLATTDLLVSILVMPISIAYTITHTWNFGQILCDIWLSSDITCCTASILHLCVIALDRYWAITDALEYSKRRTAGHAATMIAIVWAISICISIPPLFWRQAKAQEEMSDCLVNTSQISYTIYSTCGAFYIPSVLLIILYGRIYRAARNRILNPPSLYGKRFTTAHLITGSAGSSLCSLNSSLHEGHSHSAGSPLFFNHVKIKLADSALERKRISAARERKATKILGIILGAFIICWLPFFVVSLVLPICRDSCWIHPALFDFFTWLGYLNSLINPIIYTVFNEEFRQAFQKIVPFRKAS
Method: as §1, §2

[1] = tracer at 1μM, listed as amitriptyline-b-2-NB590
[2] = tracer at 0.1μM, listed as amitriptyline-b-2-NB590

T1 sequence (P41597 whole entry): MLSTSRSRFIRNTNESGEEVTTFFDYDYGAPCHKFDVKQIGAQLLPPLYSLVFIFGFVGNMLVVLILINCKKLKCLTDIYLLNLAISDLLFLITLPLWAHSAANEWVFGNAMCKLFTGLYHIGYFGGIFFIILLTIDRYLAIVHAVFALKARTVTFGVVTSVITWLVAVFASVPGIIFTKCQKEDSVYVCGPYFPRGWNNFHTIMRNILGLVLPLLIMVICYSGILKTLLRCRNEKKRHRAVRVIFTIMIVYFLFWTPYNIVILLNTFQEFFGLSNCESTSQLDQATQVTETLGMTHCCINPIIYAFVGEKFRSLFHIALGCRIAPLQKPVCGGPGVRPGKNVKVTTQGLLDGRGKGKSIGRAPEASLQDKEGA

CN1CCN(C2=Nc3cc(Cl)ccc3Nc3ccc(CNC(=O)CCOCCOCCOCCOCCNC(=O)CCc4ccc5n4[B-](F)(F)[N+]4=C(c6ccc[nH]6)C=CC4=C5)cc32)CC1 [Clozapine-b-2-NB590]
NanoBRET Fold Response (CCR2; CCR2, 0.1μM tracer): 1.01 | NanoBRET Fold Response (CCR2; CCR2, 1μM tracer): 0.93 | NanoBRET Fold Response (SMO; SMO, 0.1μM tracer): 1.13 | NanoBRET Fold Response (SMO; SMO, 1μM tracer): 0.80 | NanoBRET Fold Response (SSTR1; SSTR1, 0.1μM tracer): 1.00 | NanoBRET Fold Response (SSTR1; SSTR1, 1μM tracer): 1.09 | NanoBRET Fold Response (DRD5; DRD5, 0.1μM tracer): 1.01 | NanoBRET Fold Response (DRD5; DRD5, 1μM tracer): 1.83 | NanoBRET Fold Response (PTAFR; PTAFR, 0.1μM tracer): 1.01 | NanoBRET Fold Response (PTAFR; PTAFR, 1μM tracer): 1.14 | NanoBRET Fold Response (CNR1; 0.1μM tracer): 1.01 | NanoBRET Fold Response (CNR1; 1μM tracer): 1.03 | NanoBRET Fold Response (RXFP3; RXFP3, 0.1μM tracer): 0.99 | NanoBRET Fold Response (RXFP3; RXFP3, 1μM tracer): 1.04 | NanoBRET Fold Response (PTGDR2; PTGDR2, 0.1μM tracer): 1.01 | NanoBRET Fold Response (PTGDR2; PTGDR2, 1μM tracer): 1.02 | NanoBRET Fold Response (HTR1D; HTR1D, 0.1μM tracer): 1.08 | NanoBRET Fold Response (HTR1D; HTR1D, 1μM tracer): 1.48

CN(C)CCC=C1c2ccccc2CCc2ccc(C(=O)NCCNC(=O)CCOCCOCCOCCOCCNC(=O)CCc3ccc4n3[B-](F)(F)[N+]3=C(c5ccc[nH]5)C=CC3=C4)cc21 [Amitriptyline-b-2-NB590]
NanoBRET Fold Response (CCR2; tracer at 0.1μM): 0.99 | NanoBRET Fold Response (CCR2; tracer at 1μM): 0.89 | NanoBRET Fold Response (SMO; tracer at 1μM): 0.97 | NanoBRET Fold Response (SSTR1; [1]): 1.07 | NanoBRET Fold Response (DRD5; [2]): 1.08 | NanoBRET Fold Response (DRD5; [1]): 1.42 | NanoBRET Fold Response (PTAFR; [2]): 0.92 | NanoBRET Fold Response (PTAFR; [1]): 1.02 | NanoBRET Fold Response (CNR1; tracer 0.1μM): 1.03 | NanoBRET Fold Response (CNR1; tracer 1μM): 1.04 | NanoBRET Fold Response (RXFP3; [2]): 0.98 | NanoBRET Fold Response (RXFP3; [1]): 1.03 | NanoBRET Fold Response (PTGDR2; tracer at 0.1μM): 1.00 | NanoBRET Fold Response (PTGDR2; tracer at 1μM): 1.00 | NanoBRET Fold Response (HTR1D; [2]): 1.43 | NanoBRET Fold Response (HTR1D; [1]): 0.74

CCOC(=O)c1cc(C#N)c(N2CCC(C(=O)NS(=O)(=O)Cc3ccccc3/C=C/C(=O)NCCNC(=O)CCc3ccc4n3[B-](F)(F)[N+]3=C(c5ccc[nH]5)C=CC3=C4)CC2)nc1C [AZD1283-1-NB590]
NanoBRET Fold Response (CCR2; CCR2, 0.1μM): 0.93 | NanoBRET Fold Response (CCR2; CCR2, 1μM): 1.04 | NanoBRET Fold Response (SMO; SMO, 0.1μM): 1.05 | NanoBRET Fold Response (SMO; SMO, 1μM): 1.13 | NanoBRET Fold Response (SSTR1; SSTR1, 0.1μM): 1.08 | NanoBRET Fold Response (SSTR1; SSTR1, 1μM): 1.10 | NanoBRET Fold Response (DRD5; DRD5, 0.1μM): 1.02 | NanoBRET Fold Response (DRD5; DRD5, 1μM): 1.13 | NanoBRET Fold Response (PTAFR; PTAFR, 0.1μM): 1.01 | NanoBRET Fold Response (PTAFR; PTAFR, 1μM): 1.17 | NanoBRET Fold Response (CNR1; 0.1μM): 0.97 | NanoBRET Fold Response (CNR1; 1μM): 0.51 | NanoBRET Fold Response (RXFP3; RXFP3, 0.1μM): 0.94 | NanoBRET Fold Response (RXFP3; RXFP3, 1μM): 1.12 | NanoBRET Fold Response (PTGDR2; PTGDR2, 0.1μM): 1.07 | NanoBRET Fold Response (PTGDR2; PTGDR2, 1μM): 1.03 | NanoBRET Fold Response (HTR1D; HTR1D, 0.1μM): 0.90 | NanoBRET Fold Response (HTR1D; HTR1D, 1μM): 0.88

Source: publication PMC8151276, “An Integrated Approach toward NanoBRET Tracers for Analysis of GPCR Ligand Engagement” (Molecules, 2021)
